Where two headings read alike, the source gives them in different places.
Key:
[1] = test system: mono-methyl arginine in RKO cells; test: RKO Methylation Assay, In Cell Western (ICW) for mono-methyl arginine and DNA content; assay type: cell-based; settings: Homo sapiens, RKO, 72 h
Summary of the method: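 RKO cells treated with compound for 72 hours at 37 °C, then methanol-fixed and stained overnight at 4 °C with anti-mono-methyl arginine antibody, plus DRAQ5 for DNA. Signal ratio from 700 and 800 nm infrared scans normalized to DMSO (minimum) and 20 μM reference compound (maximum); EC30 from triplicate curves.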

human PRMT1 = target: T1, human PRMT1 (Homo sapiens, UniProt Q99873); test: PRMT1 Biochemical Assay (3H-SAM Flashplate, peptide substrate)
T1 construct: GST-tagged PRMT1; made in house; host or cells: High Five insect cells (baculovirus)
T1 sequence (Q99873 with tags, fused parts or gaps): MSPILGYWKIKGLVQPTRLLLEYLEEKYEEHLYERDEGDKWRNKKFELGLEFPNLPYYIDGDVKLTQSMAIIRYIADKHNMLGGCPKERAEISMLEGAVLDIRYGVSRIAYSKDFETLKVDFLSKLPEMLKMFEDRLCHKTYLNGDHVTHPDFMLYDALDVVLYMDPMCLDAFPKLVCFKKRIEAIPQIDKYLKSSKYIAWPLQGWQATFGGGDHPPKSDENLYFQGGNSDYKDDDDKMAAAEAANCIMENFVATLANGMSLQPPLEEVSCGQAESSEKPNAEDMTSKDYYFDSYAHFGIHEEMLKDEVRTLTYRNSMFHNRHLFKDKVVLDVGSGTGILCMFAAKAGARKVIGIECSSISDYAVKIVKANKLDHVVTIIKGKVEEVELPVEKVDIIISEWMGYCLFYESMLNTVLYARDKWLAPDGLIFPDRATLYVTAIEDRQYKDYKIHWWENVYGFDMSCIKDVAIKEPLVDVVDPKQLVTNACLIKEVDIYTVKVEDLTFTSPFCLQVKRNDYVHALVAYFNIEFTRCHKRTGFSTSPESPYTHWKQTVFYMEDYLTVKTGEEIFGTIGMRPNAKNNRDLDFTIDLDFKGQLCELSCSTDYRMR
Summary of the method: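 GST-tagged PRMT1 from baculovirus-infected cells, preincubated with compounds 30 min at room temperature in 20 mM Bicine pH 7.6, 1 mM TCEP, 0.005% BSG, 0.002% Tween 20. Reaction started with ³H-SAM plus biotinylated peptide, stopped with 300 µM cold SAM.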

[2] = RKO cells, 72 hours, mono-methyl arginine, percent activation, class symbols, read-out: EC30 (In Cell Western data)
[3] = RKO cells, 72 hours, mono-methyl arginine, percent activation, single experiment or average of multiple experiments, read-out: EC30 (In Cell Western data, Numerical)
[4] = single experiment or average of multiple experiments
[5] = read-out: EC30 (In Cell Western data, Numerical, μM)

Row | Compound | IC50 (human PRMT1) [nM] | IC50 (human PRMT1; [4]) [nM] | EC30 [1, 2] [µM] | EC30 [1, 3] [µM] | EC30 [1, 5] [µM] | EC30 ([1]; read-out: EC30 (In Cell Western data)) [µM]
1 | CNCCN(C)Cc1c[nH]nc1-c1ccc(OCCOC)cc1 [Compound 289] | < 100 | 21.1 | < 3 | 0.419 | – | –
2 | CN(CCN)Cc1c[nH]nc1-c1cc(Cl)cc(Cl)c1 [Compound 137] | – | 19.2 | – | 4.18 | – | –
3 | CN(CCN)Cc1n[nH]cc1-c1ccc(C(F)(F)F)cc1 [Compound 103] | – | 10.2 | – | 3.67 | – | –
4 | CNCCN(C)Cc1c[nH]nc1-c1ccc(OC2CCOCC2)c(Cl)c1 [Compound 292] | < 100 | 27.3 | < 3 | 0.098 | – | –
5 | CNCCN(C)Cc1c[nH]nc1-c1ccc(OC2COC2)cc1 [Compound 283] | < 100 | 6.65 | < 3 | 0.379 | – | –
6 | CCN(CC)C(=O)c1ccc(-c2n[nH]cc2CN(C)CCN)cc1 [Compound 143] | – | 116 | – | > 20 | – | –
7 | CC(C)c1ccc(-c2c[nH]nc2CN(C)CCN)cc1 [Compound 101] | – | 20.3 | – | – | 5.99 | –
8 | CN(CCN)Cc1c[nH]nc1-c1ccc(OC2CC2)cc1 [Compound 114] | – | 5.75 | – | 0.607 | – | –
9 | CN(CCN)Cc1c[nH]nc1-c1cc(F)cc(Cl)c1 [Compound 121] | – | 10.7 | – | 2.07 | – | –
10 | COc1cc(Cl)cc(-c2n[nH]cc2CN(C)CCN)c1 [Compound 127] | – | 46.1 | – | 7.01 | – | –
11 | CC(C)Oc1ccc(-c2c[nH]nc2CN(C)CCN)cc1F [Compound 144] | – | 5.79 | – | 0.284 | – | –
12 | CN(CCN)Cc1c[nH]nc1-c1ccc(F)cc1F [Compound 99] | – | 90.2 | – | 11.8 | – | –
13 | CNCCN(C)Cc1c[nH]nc1-c1ccc(OC2CCOCC2)c(F)c1 [Compound 291] | < 100 | 15.6 | – | – | 0.154 | < 3
14 | CN(CCN)Cc1n[nH]cc1-c1ccc(C2CC2)cc1 [Compound 104] | – | 15.7 | – | 3.92 | – | –
15 | CN(CCN)Cc1c[nH]nc1-c1cccc(Cl)c1F [Compound 123] | – | 43.9 | – | 2.96 | – | –
16 | CCn1ncc(CN(C)CCNC)c1-c1ccc(F)cc1 [Compound 7] | – | 265 | – | 5.76 | – | –
17 | CNCCN(C)Cc1c[nH]nc1-c1ccc(OC(CO)C(C)C)cc1 (stereo not shown) [Compound 286] | < 100 | 26.5 | < 3 | 0.812 | – | –
18 | CCNC(=O)c1ccc(-c2n[nH]cc2CN(C)CCN)cc1 [Compound 136] | – | 27.5 | – | > 20 | – | –
19 | CN(CCN)Cc1c[nH]nc1-c1ccc(C(F)(F)F)c(Cl)c1 [Compound 117] | – | 5.76 | – | 1.29 | – | –
20 | CN(CCN)Cc1c[nH]nc1-c1cccc(Cl)c1 [Compound 122] | – | 24.3 | – | 3.48 | – | –
21 | CN(CCN)Cc1c[nH]nc1-c1ccc(F)c(Cl)c1 [Compound 124] | – | 13.7 | – | 1.23 | – | –
22 | CN(CCN)Cc1n[nH]cc1-c1ccc(C#N)cc1 [Compound 100] | – | 12 | – | 2.98 | – | –
23 | CN(CCN)Cc1c[nH]nc1-c1ccc(Cl)c(F)c1 [Compound 118] | – | 2.94 | – | 0.314 | – | –
24 | CN(CCN)Cc1c[nH]nc1-c1ccc(Cl)cc1F [Compound 132] | – | 23.9 | – | – | 2.4 | –
25 | CNCCN(C)Cc1c[nH]nc1-c1ccc(OCC2CCOC2)cc1 (stereo not shown) [Compound 285] | < 100 | 14.8 | < 3 | 0.62 | – | –
26 | Cc1cc(Cl)ccc1-c1n[nH]cc1CN(C)CCN [Compound 133] | – | 24.8 | – | 2.91 | – | –

Further lines, with some results ahead:

Row | IC50 (human PRMT1) [nM] | IC50 (human PRMT1; [4]) [nM] | Compound | EC30 [1, 2] [µM] | EC30 [1, 3] [µM] | EC30 [1, 5] [µM] | EC30 ([1]; read-out: EC30 (In Cell Western data)) [µM]
27 | < 100 | 14.5 | CCC(COC)Oc1ccc(-c2n[nH]cc2CN(C)CCNC)cc1 (stereo not shown) [Compound 310] | < 3 | 0.032 | – | –
28 | < 100 | 11.6 | CNCCN(C)Cc1c[nH]nc1-c1ccc(Oc2ccncn2)cc1 [Compound 312] | < 3 | 0.824 | – | –
29 | < 100 | 23.5 | CNCCN(C)Cc1c[nH]nc1-c1ccc(OC2CC(OC)C2)cc1 (stereo not shown) [Compound 315] | < 3 | 0.843 | – | –
30 | < 100 | 6.59 | CNCCN(C)Cc1c[nH]nc1-c1ccc(OC2CCC2)cc1 [Compound 304] | < 3 | 0.155 | – | –
31 | < 100 | 7.1 | CNCCN(C)Cc1c[nH]nc1-c1ccc(OCC(C)C)cc1 [Compound 306] | < 3 | 0.1 | – | –
32 | < 100 | 17.5 | CNCCN(C)Cc1c[nH]nc1-c1ccc(OC(COC)COC)cc1 [Compound 316] | < 3 | 0.063 | – | –
33 | < 100 | 27.9 | CNCCN(C)Cc1c[nH]nc1-c1ccc(Oc2cncnc2)cc1 [Compound 303] | < 3 | 0.712 | – | –
34 | < 100 | 6.7 | CC[C@H](C)Oc1ccc(-c2n[nH]cc2CN(C)CCNC)cc1 [Compound 309] | < 3 | 0.024 | – | –
35 | < 100 | 13.5 | CNCCN(C)Cc1c[nH]nc1-c1ccc(OC2CC2)cc1 [Compound 293] | < 3 | 0.336 | – | –
36 | < 100 | 28.7 | CNCCN(C)Cc1c[nH]nc1-c1ccc(NC(C)C)cc1 [Compound 295] | < 3 | 0.116 | – | –
37 | < 100 | 6.36 | CNCCN(C)Cc1c[nH]nc1-c1ccc(OC2CCC2)c(F)c1 [Compound 305] | < 3 | 0.193 | – | –
38 | < 100 | 19.8 | CNCCN(C)Cc1c[nH]nc1-c1ccc(OC2CCC(O)CC2)cc1 (stereo not shown) [Compound 299] | < 3 | 0.877 | – | –

Reference: patent US9776972B2, “Pyrazole derivatives as arginine methyltransferase inhibitors and uses thereof” (priority 2013, dated 2017)
